Measurements: patent publication US11725000B2, “Apoptosis inhibitors” (National Institute of Biological Sciences, Beijing, priority 2017, dated 2023)

Test system: U2OS_Bim cells
Experiment: Apoptosis inhibition assay (Bim-induced apoptosis, cell viability by ATP level)
Type: cell-based
Settings: U2OS_Bim cells; means of duplicates; numbering of Tables 4a/4b; read-out: EC50
Summary of the method: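 Apoptosis was triggered by doxycycline (0.1 μg/mL) induction of Bim, one hour after compound addition to U2OS_Bim cells. Survival was measured after 24 h from cellular ATP (CellTiter-Glo), relative to DMSO, with zVAD at 20 μM as rescue control. Data are duplicate means, some estimated from preliminary results.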

Row | Structure (SMILES) | EC50 [nM]
1 | Cc1cc(-c2cc(F)c(=O)n(CC3CCCCC3)c2)nc([S+]([O-])CCC(OCc2ccc(F)cc2F)c2ccccc2)n1 (stereo not drawn) [Compound 308, 1-(cyclohexylmethyl)-5-(2-(3-(2,4-difluorobenzyloxy)-3-phenylpropylsulfinyl)-6-methylpyrimidin-4-yl)-3-fluoropyridin-2 (1H)-one] | < 100000
2 | Cc1cc(-c2cc(F)c(=O)n(CC3CCCCC3)c2)nc(S(=O)(=O)CCC(OCc2ccc(F)cc2F)c2ccccc2)n1 (stereo not drawn) [Compound 309, 1-(cyclohexylmethyl)-5-(2-(3-(2,4-difluorobenzyloxy)-3-phenylpropylsulfonyl)-6-methylpyrimidin-4-yl)-3-fluoropyridin-2 (1H)-one] | 1000 to 10000
3 | Cc1cc(-c2cc(F)c(=O)n(CC3CCNCC3)c2)nc(S(=O)(=O)CCC(OCc2ccc(F)cc2F)c2ccccc2)n1 (stereo not drawn) [Compound 312, 5-(2-(3-(2,4-difluorobenzyloxy)-3-phenylpropylsulfonyl)-6-methylpyrimidin-4-yl)-3-fluoro-1-(piperidin-4-ylmethyl)pyridin-2 (1H)-one] | < 100000
4 | Cc1cc(-c2cc(F)c(=O)n(CC3CCOCC3)c2)nc([S+]([O-])CCC(OCc2ccc(F)cc2F)c2ccccc2)n1 (stereo not drawn) [Compound 313, 5-(2-(3-(2,4-difluorobenzyloxy)-3-phenylpropylsulfinyl)-6-methylpyrimidin-4-yl)-3-fluoro-1-((tetrahydro-2H-pyran-4-yl)methyl)pyridin-2 (1H)-one] | 1000 to 10000
5 | Cc1cc(-c2cc(F)c(=O)n(Cc3ccc(Cl)c(Cl)c3)c2)nc([S+]([O-])CCC(OCc2ccc(F)cc2F)c2ccccc2)n1 (stereo not drawn) [Compound 315, 1-(3,4-dichlorobenzyl)-5-(2-(3-(2,4-difluorobenzyloxy)-3-phenylpropylsulfinyl)-6-methylpyrimidin-4-yl)-3-fluoropyridin-2 (1H)-one] | < 100000
6 | Cc1cc(-c2cc(F)c(=O)n(Cc3ccc(Cl)c(Cl)c3)c2)nc(S(=O)(=O)CCC(OCc2ccc(F)cc2F)c2ccccc2)n1 (stereo not drawn) [Compound 316, 1-(3,4-dichlorobenzyl)-5-(2-(3-(2,4-difluorobenzyloxy)-3-phenylpropylsulfonyl)-6-methylpyrimidin-4-yl)-3-fluoropyridin-2 (1H)-one] | 1000 to 10000
7 | Cc1cc(-c2cc(F)c(=O)n(Cc3ccc4nsnc4c3)c2)nc(S(=O)(=O)CCC(OCc2ccccc2F)c2ccccc2)n1 (stereo not drawn) [Compound 319, 1-(benzo[c][1,2,5]thiadiazol-5-ylmethyl)-3-fluoro-5-(2-(3-(2-fluorobenzyloxy)-3-phenylpropylsulfonyl)-6-methylpyrimidin-4-yl)pyridin-2 (1H)-one] | 1 to 1000
8 | Cc1cc(-c2cc(F)c(=O)n(Cc3cccc4c3OCO4)c2)nc(S(=O)(=O)CCC(OCc2ccccc2F)c2ccccc2)n1 (stereo not drawn) [Compound 320, 1-(benzo[d][1,3]dioxol-4-ylmethyl)-3-fluoro-5-(2-(3-(2-fluorobenzyloxy)-3-phenylpropylsulfonyl)-6-methylpyrimidin-4-yl)pyridin-2 (1H)-one] | 1 to 1000
9 | Cc1cc(-c2cc(F)c(=O)n(Cc3ccc4nc[nH]c4c3)c2)nc(S(=O)(=O)CCC(OCc2ccccc2F)c2ccccc2)n1 (stereo not drawn) [Compound 322, 1-((1H-benzo[d]imidazol-6-yl)methyl)-3-fluoro-5-(2-(3-(2-fluorobenzyloxy)-3-phenylpropylsulfonyl)-6-methylpyrimidin-4-yl)pyridin-2 (1H)-one] | 1 to 1000
10 | Cc1cc(-c2c[nH]c(=O)c(F)c2)nc(S(=O)(=O)CCC(OCc2ccccc2F)c2ccccc2)n1 (stereo not drawn) [Compound 325, 3-fluoro-5-(2-(3-(2-fluorobenzyloxy)-3-phenylpropylsulfonyl)-6-methylpyrimidin-4-yl)pyridin-2 (1H)-one] | 1000 to 10000
11 | Cc1cc(-c2cc(F)c(=O)n(Cc3ccc4c(cnn4C)c3)c2)nc(S(=O)(=O)CCC(OCc2ccccc2F)c2ccccc2)n1 (stereo not drawn) [Compound 327, 3-fluoro-5-(2-(3-(2-fluorobenzyloxy)-3-phenylpropylsulfonyl)-6-methylpyrimidin-4-yl)-1-((1-methyl-1H-indazol-5-yl)methyl)pyridin-2 (1H)-one] | 1 to 1000
12 | Cc1cc(-c2cnc(OCc3ccc4c(cnn4C)c3)c(F)c2)nc(S(=O)(=O)CCC(OCc2ccccc2F)c2ccccc2)n1 (stereo not drawn) [Compound 328, 5-((3-fluoro-5-(2-(3-(2-fluorobenzyloxy)-3-phenylpropylsulfonyl)-6-methylpyrimidin-4-yl)pyridin-2-yloxy)methyl)-1-methyl-1H-indazole] | < 100000
13 | Cc1cc(-c2cc(F)c(=O)n(Cc3ccc4ocnc4c3)c2)nc(S(=O)(=O)CCC(OCc2ccccc2F)c2ccccc2)n1 (stereo not drawn) [Compound 329, 1-(benzo[d]oxazol-5-ylmethyl)-3-fluoro-5-(2-((3-((2-fluorobenzyl)oxy)-3-phenylpropyl)sulfonyl)-6-methylpyrimidin-4-yl)pyridin-2 (1H)-one] | 1 to 1000
14 | Cc1cc(-c2cc(F)c(=O)n(Cc3ccc4c(c3)OCCO4)c2)nc(S(=O)(=O)CCC(OCc2ccccc2F)c2ccccc2)n1 (stereo not drawn) [Compound 331, 1-((2,3-dihydrobenzo[b][1,4]dioxin-6-yl)methyl)-3-fluoro-5-(2-(3-(2-fluorobenzyloxy)-3-phenylpropylsulfonyl)-6-methylpyrimidin-4-yl)pyridin-2 (1H)-one] | 1 to 1000
15 | C#CCOc1cc(Cn2cc(-c3cc(C)nc(S(=O)(=O)CCC(OCc4ccccc4F)c4ccccc4)n3)cc(F)c2=O)ccc1OC (stereo not drawn) [Compound 332, 3-fluoro-5-(2-((3-((2-fluorobenzyl)oxy)-3-phenylpropyl)sulfonyl)-6-methylpyrimidin-4-yl)-1-(4-methoxy-3-(prop-2-yn-1-yloxy)benzyl)pyridin-2 (1H)-one] | 1 to 1000
16 | Cc1cc(-c2cc(F)c(=O)n(Cc3ccc4c(c3)OCO4)c2)nc(S(=O)(=O)CCC(Oc2cccnc2)c2ccccc2)n1 (stereo not drawn) [Compound 333, 1-(benzo[d][1,3]dioxol-5-ylmethyl)-3-fluoro-5-(6-methyl-2-((3-phenyl-3-(pyridin-3-yloxy)propyl)sulfonyl)pyrimidin-4-yl)pyridin-2 (1H)-one] | 1 to 1000
17 | O=c1c(F)cc(-c2cc(CF)nc(S(=O)(=O)CCC(OCc3ccccc3F)c3ccccc3)n2)cn1Cc1ccc2c(c1)OCO2 (stereo not drawn) [Compound 335, 1-(benzo[d][1,3]dioxol-5-ylmethyl)-3-fluoro-5-(2-((3-((2-fluorobenzyl)oxy)-3-phenylpropyl)sulfonyl)-6-(fluoromethyl)pyrimidin-4-yl)pyridin-2 (1H)-one] | 1 to 1000

Now from value to compound:

Row | EC50 [nM] | Structure (SMILES)
18 | 1000 to 10000 | CCOc1cccc(Cn2cc(-c3cc(C)nc([S+]([O-])CCC(OCc4ccc(F)cc4F)c4ccccc4)n3)cc(F)c2=O)c1 (stereo not drawn) [Compound 310, 5-(2-((3-((2,4-difluorobenzyl)oxy)-3-phenylpropyl)sulfinyl)-6-methylpyrimidin-4-yl)-1-(3-ethoxybenzyl)-3-fluoropyridin-2 (1H)-one]
19 | 1 to 1000 | CCOc1cccc(Cn2cc(-c3cc(C)nc(S(=O)(=O)CCC(OCc4ccc(F)cc4F)c4ccccc4)n3)cc(F)c2=O)c1 (stereo not drawn) [Compound 311, 5-(2-((3-((2,4-difluorobenzyl)oxy)-3-phenylpropyl)sulfonyl)-6-methylpyrimidin-4-yl)-1-(3-ethoxybenzyl)-3-fluoropyridin-2 (1H)-one]
20 | 1 to 1000 | Cc1cc(-c2cc(F)c(=O)n(CC3CCOCC3)c2)nc(S(=O)(=O)CCC(OCc2ccc(F)cc2F)c2ccccc2)n1 (stereo not drawn) [Compound 314, 5-(2-(3-(2,4-difluorobenzyloxy)-3-phenylpropylsulfonyl)-6-methylpyrimidin-4-yl)-3-fluoro-1-((tetrahydro-2H-pyran-4-yl)methyl)pyridin-2 (1H)-one]
21 | 1 to 1000 | Cc1cc(-c2cc(F)c(=O)n(Cc3ccc4c(c3)OCO4)c2)nc(S(=O)(=O)CCC(OCc2ccc(F)cc2F)c2ccccc2)n1 (stereo not drawn) [Compound 317, 1-(benzo[d][1,3]dioxol-5-ylmethyl)-5-(2-((3-((2,4-difluorobenzyl)oxy)-3-phenylpropyl)sulfonyl)-6-methylpyrimidin-4-yl)-3-fluoropyridin-2 (1H)-one]
22 | 1 to 1000 | Cc1cc(-c2cc(F)c(=O)n(Cc3ccc4c(c3)OCO4)c2)nc(S(=O)(=O)CCC(OCc2ccccc2F)c2ccccc2)n1 (stereo not drawn) [Compound 318, 1-(benzo[d][1,3]dioxol-5-ylmethyl)-3-fluoro-5-(2-(3-(2-fluorobenzyloxy)-3-phenylpropylsulfonyl)-6-methylpyrimidin-4-yl)pyridin-2 (1H)-one]
23 | 1 to 1000 | COc1cc(Cn2cc(-c3cc(C)nc(S(=O)(=O)CCC(OCc4ccccc4F)c4ccccc4)n3)cc(F)c2=O)ccn1 (stereo not drawn) [Compound 321, 3-fluoro-5-(2-(3-(2-fluorobenzyloxy)-3-phenylpropylsulfonyl)-6-methylpyrimidin-4-yl)-1-((2-methoxypyridin-4-yl)methyl)pyridin-2 (1H)-one]
24 | 1 to 1000 | Cc1cc(-c2cc(F)c(=O)n(Cc3ccc4c(c3)no[n+]4[O-])c2)nc(S(=O)(=O)CCC(OCc2ccccc2F)c2ccccc2)n1 (stereo not drawn) [Compound 323]
25 | 1000 to 10000 | COc1ccc(Cn2cc(-c3cc(C)nc(S(C)(=O)=O)n3)cc(F)c2=O)cc1OC [Compound 324, 1-(3,4-dimethoxybenzyl)-3-fluoro-5-(6-methyl-2-(methylsulfonyl)pyrimidin-4-yl)pyridin-2 (1H)-one]
26 | 1 to 1000 | Cc1cc(-c2cc(F)c(=O)n(Cc3ccc4scnc4c3)c2)nc(S(=O)(=O)CCC(OCc2ccccc2F)c2ccccc2)n1 (stereo not drawn) [Compound 326, 1-(benzo[d]thiazol-5-ylmethyl)-3-fluoro-5-(2-(3-(2-fluorobenzyloxy)-3-phenylpropylsulfonyl)-6-methylpyrimidin-4-yl)pyridin-2 (1H)-one]
27 | 1000 to 10000 | CS(=O)(=O)c1nc(CF)cc(-c2cc(F)c(=O)n(Cc3ccc4c(c3)OCO4)c2)n1 [Compound 334, 1-(benzo[d][1,3]dioxol-5-ylmethyl)-3-fluoro-5-(6-(fluoromethyl)-2-(methylsulfonyl)pyrimidin-4-yl)pyridin-2 (1H)-one]
